Assay results reported in US20030035843A1, “Method for processing and preserving collagen-based tissues for transplantation” (LifeCell Corporation, a Delaware corporation, priority 1990, published 2003).

B1: Thermolysin: enzyme used for decellularization; attacks the bulbous phemphigoid antigen in the hemidesmosome (protein, UniProt P00800 233-548, looked up)
Thermolysin: ITGTSTVGVGRGVLGDQKNINTTYSTYYYLQDNTRGNGIFTYDAKYRTTLPGSLWADADNQFFASYDAPAVDAHYYAGVTYDYYKNVHNRLSYDGNNAAIRSSVHYSQGYNNAFWNGSQMVYGDGDGQTFIPLSGGIDVVAHELTHAVTDYTAGLIYQNESGAINEAISDIFGTLVEFYANKNPDWEIGEDVYTPGISGDSLRSMSDPAKYGDPDHYSKRYTGTQDNGGVHINSGIINKAAYLISQGGTHYGVSVVGIGRDKLGKIFYRALTQYLTPTSNFSQLRAAAVQSATDLYGSTSQEVASVKQAFDAVGVK

Tests used:
[1] = test system: porcine skin; assay: Separation of epidermis and dermis of porcine skin by salt incubation; settings: 1 molar, 48 hours
[2] = test system: human cadaver skin; assay: Removal of epidermis/keratinocytes from human cadaver skin by enzyme or salt incubation
Text: Alternatively, enzymes may be used to accomplish decellularization, including but not limited to dispase II, trypsin, and thermolysin. These enzymes react with different components of collagen and intercellular connections in achieving their effects. Dispase II attacks Type IV collagen, which is a component of the lamina densa and anchoring fibrils of the basement membrane. Thermolysin attacks the bulbous phemphigoid antigen in the hemidesmosome of the basal layer of keratinocytes. Trypsin attacks the desmosome complex between cells. Due to the proteolytic nature of these enzymes, care must be taken that cellular removal occurs without significant damage to the extracellular matrix, including the basement membrane complex. This is a function of concentration, time and temperature. If used for too long a time or at too high a concentration, dispase II for example can completely remove the basement membrane complex from the dermis.

Row | Molecule | separation of the epidermis and dermis [1] | separation of the epidermis and dermis ([2]; 1 molar, 16 hours, human skin) | removal of keratinocytes ([2]; 200 ug/ml, 30 minutes, 4° C., human cadaver skin)
1 | [Cl-].[Na+] [sodium chloride] | clean separation of the epidermis and dermis without damage to the basement membrane complex | clean separation of the epidermis and dermis without damage to the basement membrane complex | –
2 | B1 | – | – | essentially remove all keratinocytes
